Data from PubChem BioAssay AID2060624 (Molecular Pharmacology Branch, DTP, NCI, 2025).

System: 217524-143-R1-J4-PDC spheroids with HUVEC/MSC, viability
Experiment: Anticancer human tumor 217524-143-R1-J4-PDC patient-derived pancreatic carcinoma cell line growth inhibition [CLK]
Settings: for IC50: curve of first compound; for viability, T/C: stronger effect = lower value
In short: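 Patient-derived tumor cells grown as complex spheroids with HUVEC endothelial cells and mesenchymal stem cells, treated with drug combinations. Concentrations descend in half-log steps from near clinical Cmax, or from 10 microM if Cmax unknown.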

[1] = second compound 0.0316 µM, first compound 0.00949 µM
[2] = second compound 0.0316 µM, first compound 0.03 µM
[3] = second compound 0.0316 µM, first compound 0.0949 µM
[4] = second compound 0.0316 µM, first compound 0.3 µM
[5] = second compound 0.1 µM, first compound 0.00949 µM
[6] = second compound 0.1 µM, first compound 0.03 µM
[7] = second compound 0.1 µM, first compound 0.0949 µM
[8] = second compound 0.1 µM, first compound 0.3 µM
[9] = second compound 0.316 µM, first compound 0.00949 µM
[10] = second compound 0.316 µM, first compound 0.03 µM
[11] = second compound 0.316 µM, first compound 0.0949 µM
[12] = second compound 0.316 µM, first compound 0.3 µM
[13] = second compound 1 µM, first compound 0.00949 µM
[14] = second compound 1 µM, first compound 0.03 µM
[15] = second compound 1 µM, first compound 0.0949 µM
[16] = second compound 1 µM, first compound 0.3 µM
[17] = second compound 3.16 µM, first compound 0.00949 µM
[18] = second compound 3.16 µM, first compound 0.03 µM
[19] = second compound 3.16 µM, first compound 0.0949 µM
[20] = second compound 3.16 µM, first compound 0.3 µM
[21] = second compound 10 µM, first compound 0.00949 µM
[22] = second compound 10 µM, first compound 0.03 µM
[23] = second compound 10 µM, first compound 0.0949 µM
[24] = second compound 10 µM, first compound 0.3 µM
[25] = second compound 0.0316 µM, first compound 0.0316 µM
[26] = second compound 0.0316 µM, first compound 0.1 µM
[27] = second compound 0.0316 µM, first compound 0.316 µM
[28] = second compound 0.0316 µM, first compound 1 µM
[29] = second compound 0.0316 µM, first compound 3.16 µM
[30] = second compound 0.0316 µM, first compound 10 µM
[31] = second compound 0.1 µM, first compound 0.0316 µM
[32] = second compound 0.1 µM, first compound 0.1 µM
[33] = second compound 0.1 µM, first compound 0.316 µM
[34] = second compound 0.1 µM, first compound 1 µM
[35] = second compound 0.1 µM, first compound 3.16 µM
[36] = second compound 0.1 µM, first compound 10 µM
[37] = second compound 0.316 µM, first compound 0.0316 µM
[38] = second compound 0.316 µM, first compound 0.1 µM
[39] = second compound 0.316 µM, first compound 0.316 µM
[40] = second compound 0.316 µM, first compound 1 µM
[41] = second compound 0.316 µM, first compound 3.16 µM
[42] = second compound 0.316 µM, first compound 10 µM
[43] = second compound 1 µM, first compound 0.0316 µM
[44] = second compound 1 µM, first compound 0.1 µM
[45] = second compound 1 µM, first compound 0.316 µM
[46] = second compound 1 µM, first compound 1 µM
[47] = second compound 1 µM, first compound 3.16 µM
[48] = second compound 1 µM, first compound 10 µM
[49] = second compound 3.16 µM, first compound 0.0316 µM
[50] = second compound 3.16 µM, first compound 0.1 µM
[51] = second compound 3.16 µM, first compound 0.316 µM
[52] = second compound 3.16 µM, first compound 1 µM
[53] = second compound 3.16 µM, first compound 3.16 µM
[54] = second compound 3.16 µM, first compound 10 µM
[55] = second compound 10 µM, first compound 0.0316 µM
[56] = second compound 10 µM, first compound 0.1 µM
[57] = second compound 10 µM, first compound 0.316 µM
[58] = second compound 10 µM, first compound 1 µM
[59] = second compound 10 µM, first compound 3.16 µM
[60] = second compound 10 µM, first compound 10 µM
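Also: spheroids exposed to agents for seven days before reading.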
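For viability, T/C in this document: 100% = DMSO vehicle control viability.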

Structure (SMILES): C=CC(=O)Nc1cc(Nc2nccc(-c3cn(C)c4ccccc34)n2)c(OC)cc1N(C)CCN(C)C + CN1CCN(c2cc(C(=O)Nc3cc4cc(-c5cnn(C)c5)ccc4cn3)ccn2)CC1
- IC50 (second compound 0.0316 µM): 127 nM
- IC50 (second compound 0.1 µM): 32.5 nM
- IC50 (second compound 0.316 µM): < 0.949 nM
- IC50 (second compound 1 µM): < 0.949 nM
- IC50 (second compound 3.16 µM): < 0.949 nM
- IC50 (second compound 10 µM): < 0.949 nM
- viability, T/C (second compound 0.0316 µM, first compound 0.000949 µM): 79.8%
- viability, T/C (second compound 0.0316 µM, first compound 0.003 µM): 63.2%
- viability, T/C [1]: 82.2%
- viability, T/C [2]: 72.5%
- viability, T/C [3]: 56%
- viability, T/C [4]: 32.5%
- viability, T/C (second compound 0.1 µM, first compound 0.000949 µM): 57.5%
- viability, T/C (second compound 0.1 µM, first compound 0.003 µM): 61.2%
- viability, T/C [5]: 61.9%
- viability, T/C [6]: 47.2%
- viability, T/C [7]: 39.5%
- viability, T/C [8]: 24.8%
- viability, T/C (second compound 0.316 µM, first compound 0.000949 µM): 25.4%
- viability, T/C (second compound 0.316 µM, first compound 0.003 µM): 27.2%
- viability, T/C [9]: 22.9%
- viability, T/C [10]: 22.5%
- viability, T/C [11]: 19%
- viability, T/C [12]: 12.6%
- viability, T/C (second compound 1 µM, first compound 0.000949 µM): 2.17%
- viability, T/C (second compound 1 µM, first compound 0.003 µM): 2.28%
- viability, T/C [13]: 1.87%
- viability, T/C [14]: 1.61%
- viability, T/C [15]: 1.64%
- viability, T/C [16]: 0.9%
- viability, T/C (second compound 3.16 µM, first compound 0.000949 µM): 1.11%
- viability, T/C (second compound 3.16 µM, first compound 0.003 µM): 0.99%
- viability, T/C [17]: 1.06%
- viability, T/C [18]: 0.81%
- viability, T/C [19]: 1.04%
- viability, T/C [20]: 0.71%
- viability, T/C (second compound 10 µM, first compound 0.000949 µM): 0.22%
- viability, T/C (second compound 10 µM, first compound 0.003 µM): 0.25%
- viability, T/C [21]: 0.25%
- viability, T/C [22]: 0.26%
- viability, T/C [23]: 0.27%
- viability, T/C [24]: 0.25%

Structure (SMILES): CC1(C)CCC(CN2CCN(c3ccc(C(=O)NS(=O)(=O)c4ccc(NCC5CCOCC5)c([N+](=O)[O-])c4)c(Oc4cnc5[nH]ccc5c4)c3)CC2)=C(c2ccc(Cl)cc2)C1 + CN1CCN(c2cc(C(=O)Nc3cc4cc(-c5cnn(C)c5)ccc4cn3)ccn2)CC1
- IC50 (second compound 0.0316 µM): 5020 nM
- IC50 (second compound 0.1 µM): 3820 nM
- IC50 (second compound 0.316 µM): < 31.6 nM
- IC50 (second compound 1 µM): < 31.6 nM
- IC50 (second compound 3.16 µM): < 31.6 nM
- IC50 (second compound 10 µM): < 31.6 nM
- viability, T/C [25]: 83.2%
- viability, T/C [26]: 68.9%
- viability, T/C [27]: 89.4%
- viability, T/C [28]: 88.4%
- viability, T/C [29]: 77.1%
- viability, T/C [30]: 9.4%
- viability, T/C [31]: 55.5%
- viability, T/C [32]: 55%
- viability, T/C [33]: 55.1%
- viability, T/C [34]: 65.7%
- viability, T/C [35]: 60.2%
- viability, T/C [36]: 7.83%
- viability, T/C [37]: 19.1%
- viability, T/C [38]: 20.4%
- viability, T/C [39]: 21.5%
- viability, T/C [40]: 22.8%
- viability, T/C [41]: 20.9%
- viability, T/C [42]: 6.29%
- viability, T/C [43]: 2.02%
- viability, T/C [44]: 1.96%
- viability, T/C [45]: 1.65%
- viability, T/C [46]: 1.7%
- viability, T/C [47]: 1.3%
- viability, T/C [48]: 1.35%
- viability, T/C [49]: 0.59%
- viability, T/C [50]: 0.61%
- viability, T/C [51]: 0.76%
- viability, T/C [52]: 0.45%
- viability, T/C [53]: 0.49%
- viability, T/C [54]: 0.25%
- viability, T/C [55]: 0.16%
- viability, T/C [56]: 0.16%
- viability, T/C [57]: 0.19%
- viability, T/C [58]: 0.26%
- viability, T/C [59]: 0.24%
- viability, T/C [60]: 0.17%

Structure (SMILES): NC(=O)C(=Cn1cnc(-c2cc(C(F)(F)F)cc(C(F)(F)F)c2)n1)c1cncnc1 + CN1CCN(c2cc(C(=O)Nc3cc4cc(-c5cnn(C)c5)ccc4cn3)ccn2)CC1
- IC50 (second compound 0.0316 µM): 21.8 nM
- IC50 (second compound 0.1 µM): < 9.49 nM
- IC50 (second compound 0.316 µM): < 9.49 nM
- IC50 (second compound 1 µM): < 9.49 nM
- IC50 (second compound 3.16 µM): < 9.49 nM
- IC50 (second compound 10 µM): < 9.49 nM
- viability, T/C [1]: 80.7%
- viability, T/C [2]: 39.1%
- viability, T/C [3]: 22.3%
- viability, T/C [4]: 21.2%
- viability, T/C (second compound 0.0316 µM, first compound 0.949 µM): 23.1%
- viability, T/C (second compound 0.0316 µM, first compound 3 µM): 17.8%
- viability, T/C [5]: 35.9%
- viability, T/C [6]: 23.7%
- viability, T/C [7]: 14%
- viability, T/C [8]: 15.4%
- viability, T/C (second compound 0.1 µM, first compound 0.949 µM): 14.6%
- viability, T/C (second compound 0.1 µM, first compound 3 µM): 10.6%
- viability, T/C [9]: 10.8%
- viability, T/C [10]: 8.91%
- viability, T/C [11]: 4.48%
- viability, T/C [12]: 4%
- viability, T/C (second compound 0.316 µM, first compound 0.949 µM): 1.55%
- viability, T/C (second compound 0.316 µM, first compound 3 µM): 0.81%
- viability, T/C [13]: 0.79%
- viability, T/C [14]: 0.59%
- viability, T/C [15]: 0.94%
- viability, T/C [16]: 0.88%
- viability, T/C (second compound 1 µM, first compound 0.949 µM): 0.76%
- viability, T/C (second compound 1 µM, first compound 3 µM): 1.07%
- viability, T/C [17]: 0.72%
- viability, T/C [18]: 0.67%
- viability, T/C [19]: 0.62%
- viability, T/C [20]: 0.55%
- viability, T/C (second compound 3.16 µM, first compound 0.949 µM): 0.69%
- viability, T/C (second compound 3.16 µM, first compound 3 µM): 0.68%
- viability, T/C [21]: 0.2%
- viability, T/C [22]: 0.17%
- viability, T/C [23]: 0.21%
- viability, T/C [24]: 0.22%
- viability, T/C (second compound 10 µM, first compound 0.949 µM): 0.24%
- viability, T/C (second compound 10 µM, first compound 3 µM): 0.2%

Structure (SMILES): Nc1ccccc1NC(=O)c1ccc(CNC(=O)OCc2cccnc2)cc1 + CN1CCN(c2cc(C(=O)Nc3cc4cc(-c5cnn(C)c5)ccc4cn3)ccn2)CC1
- IC50 (second compound 0.0316 µM): 3750 nM
- IC50 (second compound 0.1 µM): 1980 nM
- IC50 (second compound 0.316 µM): < 31.6 nM
- IC50 (second compound 1 µM): < 31.6 nM
- IC50 (second compound 3.16 µM): < 31.6 nM
- IC50 (second compound 10 µM): < 31.6 nM
- viability, T/C [25]: 84.2%
- viability, T/C [26]: 84.9%
- viability, T/C [27]: 80.2%
- viability, T/C [28]: 66.5%
- viability, T/C [29]: 57.4%
- viability, T/C [30]: 23.1%
- viability, T/C [31]: 65.5%
- viability, T/C [32]: 61.1%
- viability, T/C [33]: 63.5%
- viability, T/C [34]: 60.8%
- viability, T/C [35]: 42.6%
- viability, T/C [36]: 19.9%
- viability, T/C [37]: 18.9%
- viability, T/C [38]: 20.2%
- viability, T/C [39]: 27.3%
- viability, T/C [40]: 39.2%
- viability, T/C [41]: 28.9%
- viability, T/C [42]: 5.46%
- viability, T/C [43]: 1.9%
- viability, T/C [44]: 1.63%
- viability, T/C [45]: 1.82%
- viability, T/C [46]: 1.83%
- viability, T/C [47]: 0.8%
- viability, T/C [48]: 0.38%
- viability, T/C [49]: 0.79%
- viability, T/C [50]: 1.03%
- viability, T/C [51]: 0.98%
- viability, T/C [52]: 0.64%
- viability, T/C [53]: 0.44%
- viability, T/C [54]: 0.54%
- viability, T/C [55]: 0.13%
- viability, T/C [56]: 0.21%
- viability, T/C [57]: 0.25%
- viability, T/C [58]: 0.2%
- viability, T/C [59]: 0.23%
- viability, T/C [60]: 0.3%
